Test results from patent US20230181553A1, “COMPOSITION FOR HAIR IMPROVEMENT” (Dr. Cherry Inc., priority 2020, published 2023).

Assays:
[1] = system: hair thinning; assay: Scalp improvement effect in nine regions in androgenetic alopecia patients (rating of hair growth effect); format: in vivo, human; conditions: four AGA male patients, oral 5 mg once a day, 2 months
Source text: In this example, the scalp was divided into nine regions to observe the effect of the treatment therein. In this manner, even when each patient has both a good portion (portion having a large hair volume) and a poor portion (portion having a small hair volume), influence on the good portion and influence on the poor portion can be separately evaluated, and thus, it can be expected that highly accurate evaluation can be realized. Subjects were four androgenetic alopecia (AGA) male patients (of 42 to 63 years old) having aggravated as compared with a state 1 year ago. Two patients out of these patients had continuously taken Finasteride, an anti-androgen agent, respectively from 4 years ago and 7 years ago, and continuously took it after starting the following treatment. In this example, pioglitazone, that is a PPARγ agonist, was orally administered to these patients. […] A photograph of each patient taken from directly above 10 to 12 months before starting the treatment of this example, a photograph taken on the day of starting the treatment, and a photograph taken after 2 months from the start of the treatment were evaluated. […] A hair growth effect was evaluated by the 5 medical specialists in accordance with the following rating. […]

[2] = system: scalp; assay: Change in hair thickness after application of pioglitazone suspension to half side of the scalp with electroporation; format: in vivo, human
Procedure: As pioglitazone, a 15 mg pioglitazone tablet “NP” was used. One pioglitazone tablet was ground in a mortar, and the resultant was suspended in 3 mL of water for injection PL “FUSO” for use. Subjects were three female patients (patients). In each of the patients, lines were extended from both outer canthi toward the head, two points on these lines crossing a line extended between the both ears through the vertex were tattooed with an India ink, and a portion around the marked center was photographed under the same conditions. A suspension of pioglitazone was applied to the entire of half side of the scalp. In order to increase penetration, pioglitazone was caused to penetrate through the skin with META-TDS, Electroporation Machine (CTP-802, Grand Aespio Inc., Korea) at an output of 3 V/6 mA {actually measured value}. This treatment was performed at a frequency of once every two weeks 12 times (namely, for 6 months). The test sites were away from the midline of the head by 51 mm on average on both left and right sides. After 6 months from the start of the treatment (after performing the treatment 12 times), Dermo Prime, dpharris (CHOWIS, Korea) was used to import data of two images of each test site into a computer as digital images, and in each image, three hairs having the largest thickness (6 hairs in two images of each test site) were selected to automatically measure the thickness. An average value of the tested values (hair thickness: mm) was used for graphing. Specifically, assuming that the thickness before the treatment was 100, the thickness after the treatment was indicated as a rate. Regarding a patient group in which the treatment was performed on a half side, a difference between before and after the treatment and a difference between the left and right-side portions were compared.

[3] = system: CD163; assay: Gene expression in rat skin tissue after subcutaneous administration (qPCR); format: in vivo, Wistar Rat; conditions: rat back skin, 2.5, 0.1 or 0.02 µg/portion, tissue after 8 weeks, relative to no PG administration
Procedure: (§1) Next, change in gene expression in a tissue was checked. As a subject, 12 weeks old Wistar Rat (male) was used. Regarding a 2.5 µg/portion administration group, three regions were set on the back from the head to the tail, and each of these regions was divided into two regions on both left and right sides of the spine to set six regions on the back in total. In such an administration group, PG was administered to two portions around the center of each of the six regions. Specifically, in the 2.5 µg/portion administration group (n = 3), 2.5 µg (20 µL) of PG was administered per portion. Besides, regarding a 0.1 µg/portion administration group and a 0.02 µg/portion administration group, two regions were set from the head to the tail, and each of these regions was divided into two regions on both left and right sides of the spine, and thus, four regions in total were set on the back. In such an administration group, PG was administered to two portions around the center of each of the four regions. Specifically, in the 0.1 µg/portion administration group (n = 3), 0.1 µg (20 µL) of PG was administered per portion, and in the 0.02 µg/portion administration group (n = 2), 0.02 µg (20 µL) of PG was administered per portion. It is noted that a distance between the two portions was 1 cm. After 8 weeks, a tissue was collected with a 3 mm punch after shaving a portion on the center of the injected portion.
(§2) The collected tissue piece was frozen with liquid nitrogen, and stored at -80° C. […] For gene expression analysis by quantitative PCR, design and synthesis of a gene specific primer and a probe were entrusted to Integrated DNA Technologies, Inc. (Skokie, IL, USA), and an expression level of a target gene was analyzed with Prime Time Gene Expression Master Mix reagent (Integrated DNA Technologies, Inc., Skokie, IL, USA) and a Rotor-Gene Q PCR device (QIAGEN GmbH, Hilden, Germany). […]

[4] = system: CD34; assay: as above; format: in vivo, Wistar Rat; conditions: rat back skin, 2.5, 0.1 or 0.02 µg/portion, tissue after 8 weeks, relative to no PG administration
Procedure: as §1, §2

[5] = system: CD68; assay: as above; format: in vivo, Wistar Rat; conditions: rat back skin, 2.5, 0.1 or 0.02 µg/portion, tissue after 8 weeks, relative to no PG administration
Procedure: as §1, §2

**Q.** How did the “hair thinning in a site having a high degree of aggravation” value [1] turn out when `CCc1ccc(CCOc2ccc(CC3SC(=O)NC3=O)cc2)nc1` (centres unmarked) [pioglitazone] was run?
**A.** trends toward improvement were observed

**Q.** What about the “progress of hair thinning” value ([1]; rating by 5 medical specialists, FIG. 7B) of the same compound?
**A.** the progress of hair thinning was at least stopped

**Q.** What about the “hair thickness on treated side compared with negative control” value ([2]; 15 mg tablet suspended in 3 mL water, half side of scalp, once every two weeks 12 times, 1 month to 6 months after treatment, three female patients) of the same compound?
**A.** increased in the thickness

**Q.** And the “change rate of hair thickness on treated side vs change rate in negative control” value ([2]; half side treatment, 6 months, FIG. 1 lower panel)?
**A.** higher than the change rate obtained in the negative control

**Q.** And the “growing rate of hair (particularly anagen-stage hair)” value ([2]; modification of the scalp with pioglitazone)?
**A.** improvement of a growing rate of hair

**Q.** What about the “expression of CD163” value [3] of the same compound?
**A.** found to simultaneously increase

**Q.** What about the “expression of CD34” value [4] of the same compound?
**A.** found to increase

**Q.** And the “expression of CD68” value [5]?
**A.** found to simultaneously increase
